# Reference: patent US20160250177A1, “MODIFIED DOCETAXEL LIPOSOME FORMULATIONS AND USES THEREOF” (MALLINCKRODT LLC, priority 2015, published 2016)
# Where two headings read alike, the source gives them in different places.
# Tests used:
# [1] = human, in vivo; for AUC/Dose / CL / Cmax/Dose / Vss: iv
# clinical = conditions: human, in vivo
compound,measurement,setting,value
CC(=O)O[C@@]12CO[C@@H]1C[C@H](O)[C@@]1(C)C(=O)[C@H](O)C3=C(C)[C@@H](OC(=O)[C@H](OC(=O)CN4CCN(C)CC4)[C@@H](NC(=O)OC(C)(C)C)c4ccccc4)C[C@@](O)([C@@H](OC(=O)c4ccccc4)[C@H]21)C3(C)C [TD-1],CL (mean),[1],0.025 L/h/m^2
same,Cmax and AUC with respect to dose,[1],remained linear with respect to dose
same,Vss (mean),[1],1.422 L/m^2
same,dose proportionality for Cmax and AUCinf,[1],demonstrate dose proportionality
same,AUC/Dose,[1]; 12 mg/m2,38106 m^2 · ng · h/ml/mg
same,CL,[1]; 12 mg/m2,0.0283 l/h/m^2
same,Cmax/Dose,[1]; 12 mg/m2,539.6 m^2 · ng/ml/mg
same,Vss,[1]; 12 mg/m2,1.46 l/m^2
same,AUC/Dose,[1]; 48 mg/m2,55469 m^2 · ng · h/ml/mg
same,CL,[1]; 48 mg/m2,0.0186 l/h/m^2
same,Cmax/Dose,[1]; 48 mg/m2,640.3 m^2 · ng/ml/mg
same,Vss,[1]; 48 mg/m2,1.40 l/m^2
same,AUC/Dose,[1]; 120 mg/m2,52326 m^2 · ng · h/ml/mg
same,CL,[1]; 120 mg/m2,0.0202 l/h/m^2
same,Cmax/Dose,[1]; 120 mg/m2,573.6 m^2 · ng/ml/mg
same,Vss,[1]; 120 mg/m2,0.090 l/m^2
same,AUC/Dose,[1]; 225 mg/m2,58571 m^2 · ng · h/ml/mg
same,CL,[1]; 225 mg/m2,0.0184 l/h/m^2
same,Cmax/Dose,[1]; 225 mg/m2,662.2 m^2 · ng/ml/mg
same,Vss,[1]; 225 mg/m2,1.08 l/m^2
same,AUC/Dose,[1]; 320 mg/m2,405478 m^2 · ng · h/ml/mg
same,CL,[1]; 320 mg/m2,0.0260 l/h/m^2
same,Cmax/Dose,[1]; 320 mg/m2,640.6 m^2 · ng/ml/mg
same,Vss,[1]; 320 mg/m2,1.58 l/m^2
same,half-life,clinical; average t1/2 for TD-1,~51 h
same,AUC(0-inf),"clinical; iv, 3 mg/m2",103 µg·h/mL
same,Cmax,"clinical; iv, 3 mg/m2",1.52 µg/mL
same,half-life,"clinical; iv, 3 mg/m2, t1/2",48.8 h
same,AUC(0-inf),"clinical; iv, 6 mg/m2",252 µg·h/mL
same,Cmax,"clinical; iv, 6 mg/m2",3.15 µg/mL
same,half-life,"clinical; iv, 6 mg/m2, t1/2",57.6 h
same,AUC(0-inf),"clinical; iv, 12 mg/m2",457 µg·h/mL
same,Cmax,"clinical; iv, 12 mg/m2",6.48 µg/mL
same,half-life,"clinical; iv, 12 mg/m2, t1/2",44 h
same,AUC(0-inf),"clinical; iv, 24 mg/m2",955 µg·h/mL
same,Cmax,"clinical; iv, 24 mg/m2",13.7 µg/mL
same,half-life,"clinical; iv, 24 mg/m2, t1/2",43.8 h
same,AUC(0-inf),"clinical; iv, 48 mg/m2",2660 µg·h/mL
same,Cmax,"clinical; iv, 48 mg/m2",30.7 µg/mL
same,half-life,"clinical; iv, 48 mg/m2, t1/2",59.3 h
same,AUC(0-inf),"clinical; iv, 80 mg/m2",2390 µg·h/mL
same,Cmax,"clinical; iv, 80 mg/m2",43.4 µg/mL
same,half-life,"clinical; iv, 80 mg/m2, t1/2",26.7 h
same,AUC(0-inf),"clinical; iv, 120 mg/m2",6280 µg·h/mL
same,Cmax,"clinical; iv, 120 mg/m2",68.8 µg/mL
same,half-life,"clinical; iv, 120 mg/m2, t1/2",48.3 h
same,AUC(0-inf),"clinical; iv, 160 mg/m2",9440 µg·h/mL
same,Cmax,"clinical; iv, 160 mg/m2",98.5 µg/mL
same,half-life,"clinical; iv, 160 mg/m2, t1/2",66.1 h
same,AUC(0-inf),"clinical; iv, 190 mg/m2",9810 µg·h/mL
same,Cmax,"clinical; iv, 190 mg/m2",143 µg/mL
same,half-life,"clinical; iv, 190 mg/m2, t1/2",53 h
same,AUC(0-inf),"clinical; iv, 225 mg/m2",13200 µg·h/mL
same,Cmax,"clinical; iv, 225 mg/m2",149 µg/mL
same,half-life,"clinical; iv, 225 mg/m2, t1/2",54.5 h
same,AUC(0-inf),"clinical; iv, 270 mg/m2",8370 µg·h/mL
same,Cmax,"clinical; iv, 270 mg/m2",150 µg/mL
same,half-life,"clinical; iv, 270 mg/m2, t1/2",35.6 h
same,AUC(0-inf),"clinical; iv, 320 mg/m2",13000 µg·h/mL
same,Cmax,"clinical; iv, 320 mg/m2",205 µg/mL
same,half-life,"clinical; iv, 320 mg/m2, t1/2",43.7 h
same,AUC(0-inf),"clinical; iv, 380 mg/m2",34100 µg·h/mL
same,Cmax,"clinical; iv, 380 mg/m2",310 µg/mL
same,half-life,"clinical; iv, 380 mg/m2, t1/2",84.4 h
same,half-life,clinical; t1/2 (mean),~50 h
distearoyl-phosphatidylethanolamine-N-[methoxy(polyethene glycol)-2000] [DSPE(PEG-2000)],CL (mean),[1],0.025 L/h/m^2
same,Vss (mean),[1],1.409 L/m^2
same,dose proportionality for Cmax and AUCinf,[1],demonstrate dose proportionality
